Measurements reported in patent publication US20200283384A1, “ANTIBACTERIAL COMPOUNDS AND METHODS OF USE THEREOF” (Wayne State University, priority 2016, published 2020).
In brackets after ≈: the same amount, converted by molar mass. Like-named read-outs stand apart in the source and are kept apart here.

How the values were obtained:
[1] = system: S. aureus clinical isolates; experiment: Synergistic effect with oxacillin (oxacillin MIC alone and in presence of SIC); format: cell-based, Staphylococcus aureus; details: Staphylococcus aureus
Description: The synergistic effect (interaction) of HN18 and HN34 with different antibiotics against S. aureus clinical isolates was studied. The oxacillin MIC values of 8 clinical isolates of Staphylococcus aureus were determined. The oxacillin MIC of the same isolates were also determined after they were exposed to SIC of HN18, HN34 (Table 5). […] Column 2 and 3 show the oxacillin MIC value of the same isolates in presence of SIC of HN18 and HN34 respectively.

S. aureus isolates = details: for MIC: Staphylococcus aureus
[2] = system: 24 strains of S. aureus (SA1-SA24); experiment: Broth micro-dilution MIC against 24 strains of S. aureus; format: cell-based; details: for MIC: Staphylococcus aureus, read-out: Compound MIC
Description: Compounds were tested for their anti-bacterial activity against 56 clinical isolates including 24 clinical isolates of methicillin resistant S. aureus (MRSA) and methicillin-susceptible S. aureus (MSSA), 8 strains of Enterococcus, 8 strains of Acinetobacter baumannii, 8 strains of Klebsiella pneumoniae, and 8 strains of Pseudomonas aeruginosa using a standard broth micro-dilution method as recommended by the Clinical and Laboratory Standard Institute (CLSI, M100, s23).
HN18 HN19, and HN34 were tested by a broth micro-dilution method to determine their minimal inhibitory concentration (MIC) against 24 strains of S. aureus (SA1-SA24) (Table 2). […]. Furthermore, the results for HN18 and HN34 were consistent across four repeated experiments. […]

SMILES: Cc1onc(-c2ccccc2)c1C(=O)N[C@@H]1C(=O)N2[C@@H]1SC(C)(C)[C@@H]2C(=O)O [Oxacillin, reference compound]
- MIC ([1]; isolate SA3, oxacillin tested alone): > 16 µg/mL
- MIC ([1]; isolate SA4, oxacillin tested alone): > 16 µg/mL
- MIC ([1]; isolate SA5, oxacillin tested alone): > 16 µg/mL
- MIC ([1]; isolate SA9, oxacillin tested alone): > 16 µg/mL
- MIC ([1]; isolate SA10, oxacillin tested alone): 16 µg/mL
- MIC ([1]; isolate SA11, oxacillin tested alone): 8 µg/mL
- MIC ([1]; isolate SA15, oxacillin tested alone): > 16 µg/mL
- MIC ([1]; isolate SA18, oxacillin tested alone): > 16 µg/mL
- MIC (S. aureus isolates; read-out: Oxacillin MIC): > 16 µg/mL
- Oxacillin MIC (S. aureus isolates; isolates SA1, SA2, prior to exposure to sub-inhibitory concentration of HN18 and HN34): > 16 µg/mL

SMILES: O=C(N[C@H](CO)[C@H](O)c1ccc([N+](=O)[O-])cc1)C(Cl)Cl [chloramphenicol]
- MIC (S. aureus isolates; read-out: Chloramphenicol MIC): > 40 µg/mL

SMILES: COc1cc(/C=C/C(=O)C(=Cc2ccc(F)c(F)c2)C(=O)/C=C/c2ccc(O)c(OC)c2)ccc1O [HN19, (1E,6E)-1,7-bis(4-hydroxy-3-methoxyphenyl)hepta-1,6-diene{4(3,4 difluorobenzylidene)}-3,5-dione]
- Effect against the panel of S. aureus strains ([2]; 24 strains SA1-SA24, broth micro-dilution): effective
- MIC ([2]; isolate SA1, experiment I): 1 µg/mL (≈ 2.03 µM)
- MIC ([2]; isolate SA1, experiment II): 8 µg/mL (≈ 16.2 µM)
- MIC ([2]; isolate SA1, experiment III): 8 µg/mL (≈ 16.2 µM)
- MIC ([2]; isolate SA1, experiment IV): 16 µg/mL (≈ 32.5 µM)
- MIC ([2]; isolate SA2, experiment I): 1 µg/mL (≈ 2.03 µM)
- MIC ([2]; isolate SA2, experiment II): 4 µg/mL (≈ 8.12 µM)
- MIC ([2]; isolate SA2, experiment III): 4 µg/mL (≈ 8.12 µM)
- MIC ([2]; isolate SA2, experiment IV): 8 µg/mL (≈ 16.2 µM)
- MIC ([2]; isolate SA3, experiment I): 1 µg/mL (≈ 2.03 µM)
- MIC ([2]; isolate SA3, experiment II): 4 µg/mL (≈ 8.12 µM)
- MIC ([2]; isolate SA3, experiment III): 8 µg/mL (≈ 16.2 µM)
- MIC ([2]; isolate SA3, experiment IV): 8 µg/mL (≈ 16.2 µM)
- MIC ([2]; isolate SA4, experiment I): 2 µg/mL (≈ 4.06 µM)
- MIC ([2]; isolate SA4, experiment II): 4 µg/mL (≈ 8.12 µM)
- MIC ([2]; isolate SA4, experiment III): 8 µg/mL (≈ 16.2 µM)
- MIC ([2]; isolate SA4, experiment IV): 1 µg/mL (≈ 2.03 µM)
- MIC ([2]; isolate SA5, experiment I): 0.5 µg/mL (≈ 1.02 µM)
- MIC ([2]; isolate SA5, experiment II): 2 µg/mL (≈ 4.06 µM)
- MIC ([2]; isolate SA5, experiment III): 4 µg/mL (≈ 8.12 µM)
- MIC ([2]; isolate SA5, experiment IV): 8 µg/mL (≈ 16.2 µM)
- MIC ([2]; isolate SA6, experiment I): 0.5 µg/mL (≈ 1.02 µM)
- MIC ([2]; isolate SA6, experiment II): 4 µg/mL (≈ 8.12 µM)
- MIC ([2]; isolate SA6, experiment III): 4 µg/mL (≈ 8.12 µM)
- MIC ([2]; isolate SA6, experiment IV): 8 µg/mL (≈ 16.2 µM)
- MIC ([2]; isolate SA7, experiment I): 0.5 µg/mL (≈ 1.02 µM)
- MIC ([2]; isolate SA7, experiment II): 4 µg/mL (≈ 8.12 µM)
- MIC ([2]; isolate SA7, experiment III): 4 µg/mL (≈ 8.12 µM)
- MIC ([2]; isolate SA7, experiment IV): 8 µg/mL (≈ 16.2 µM)
- MIC ([2]; isolate SA8, experiment I): 0.5 µg/mL (≈ 1.02 µM)
- MIC ([2]; isolate SA8, experiment II): 4 µg/mL (≈ 8.12 µM)
- MIC ([2]; isolate SA8, experiment III): 8 µg/mL (≈ 16.2 µM)
- MIC ([2]; isolate SA8, experiment IV): 8 µg/mL (≈ 16.2 µM)
- MIC ([2]; isolate SA9, experiment I): 0.5 µg/mL (≈ 1.02 µM)
- MIC ([2]; isolate SA9, experiment II): 0.5 µg/mL (≈ 1.02 µM)
- MIC ([2]; isolate SA10, experiment I): 2 µg/mL (≈ 4.06 µM)
- MIC ([2]; isolate SA10, experiment II): 4 µg/mL (≈ 8.12 µM)
- MIC ([2]; isolate SA11, experiment I): 1 µg/mL (≈ 2.03 µM)
- MIC ([2]; isolate SA11, experiment II): 2 µg/mL (≈ 4.06 µM)
- MIC ([2]; isolate SA12, experiment I): 2 µg/mL (≈ 4.06 µM)
- MIC ([2]; isolate SA12, experiment II): 4 µg/mL (≈ 8.12 µM)
- MIC ([2]; isolate SA13, experiment I): 1 µg/mL (≈ 2.03 µM)
- MIC ([2]; isolate SA13, experiment II): 4 µg/mL (≈ 8.12 µM)
- MIC ([2]; isolate SA14, experiment I): 2 µg/mL (≈ 4.06 µM)
- MIC ([2]; isolate SA14, experiment II): 2 µg/mL (≈ 4.06 µM)
- MIC ([2]; isolate SA15, experiment I): 1 µg/mL (≈ 2.03 µM)
- MIC ([2]; isolate SA15, experiment II): 1 µg/mL (≈ 2.03 µM)
- MIC ([2]; isolate SA16, experiment I): 0.25 µg/mL (≈ 0.508 µM)
- MIC ([2]; isolate SA16, experiment II): 0.5 µg/mL (≈ 1.02 µM)
- MIC ([2]; isolate SA17, experiment I): 2 µg/mL (≈ 4.06 µM)
- MIC ([2]; isolate SA17, experiment II): 4 µg/mL (≈ 8.12 µM)
- MIC ([2]; isolate SA18, experiment I): 1 µg/mL (≈ 2.03 µM)
- MIC ([2]; isolate SA18, experiment II): 4 µg/mL (≈ 8.12 µM)
- MIC ([2]; isolate SA19, experiment I): 1 µg/mL (≈ 2.03 µM)
- MIC ([2]; isolate SA19, experiment II): 4 µg/mL (≈ 8.12 µM)
- MIC ([2]; isolate SA20, experiment I): 1 µg/mL (≈ 2.03 µM)
- MIC ([2]; isolate SA20, experiment II): 4 µg/mL (≈ 8.12 µM)
- MIC ([2]; isolate SA21, experiment I): 2 µg/mL (≈ 4.06 µM)
- MIC ([2]; isolate SA21, experiment II): 8 µg/mL (≈ 16.2 µM)
- MIC ([2]; isolate SA22, experiment I): 2 µg/mL (≈ 4.06 µM)
- MIC ([2]; isolate SA22, experiment II): 4 µg/mL (≈ 8.12 µM)
- MIC ([2]; isolate SA23, experiment I): 2 µg/mL (≈ 4.06 µM)
- MIC ([2]; isolate SA23, experiment II): 4 µg/mL (≈ 8.12 µM)
- MIC ([2]; isolate SA24, experiment I): 1 µg/mL (≈ 2.03 µM)
- MIC ([2]; isolate SA24, experiment II): 4 µg/mL (≈ 8.12 µM)
